For ten molecules, IC50 results are on record in patent US20250304567A1, “PYRROLIDIONE DERIVATIVES AS INHIBITORS OF NF KAPPA B INDUCING KINASE” (priority 2022, published 2025).

Assay [1] deals with Recombinant Human NF-kappaB-Inducing Kinase (NIK/MAP3K14) (Homo sapiens, UniProt Q99558). The assay can be described thus: Inhibition of auto-phosphorylation of recombinant human NIK/MAP3K14 activity (AlphaScreen). The format is biochemical. Conditions: 5 μM ATP, 1 nM NIK, average if tested more than once. Summed up: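 GST-tagged NIK (1 nM) auto-phosphorylation with 5 μM ATP, 2 h at 25 °C, pH 7.5 Tris buffer, 0.7% DMSO; stopped with anti-phospho-IKK Ser176/180 antibody and read by AlphaScreen. Signal normalized to full-activity and no-enzyme/no-ATP controls; IC50 from sigmoidal fit of % inhibition vs log concentration.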
Sequence of Recombinant Human NF-kappaB-Inducing Kinase (NIK/MAP3K14) (Q99558 whole entry): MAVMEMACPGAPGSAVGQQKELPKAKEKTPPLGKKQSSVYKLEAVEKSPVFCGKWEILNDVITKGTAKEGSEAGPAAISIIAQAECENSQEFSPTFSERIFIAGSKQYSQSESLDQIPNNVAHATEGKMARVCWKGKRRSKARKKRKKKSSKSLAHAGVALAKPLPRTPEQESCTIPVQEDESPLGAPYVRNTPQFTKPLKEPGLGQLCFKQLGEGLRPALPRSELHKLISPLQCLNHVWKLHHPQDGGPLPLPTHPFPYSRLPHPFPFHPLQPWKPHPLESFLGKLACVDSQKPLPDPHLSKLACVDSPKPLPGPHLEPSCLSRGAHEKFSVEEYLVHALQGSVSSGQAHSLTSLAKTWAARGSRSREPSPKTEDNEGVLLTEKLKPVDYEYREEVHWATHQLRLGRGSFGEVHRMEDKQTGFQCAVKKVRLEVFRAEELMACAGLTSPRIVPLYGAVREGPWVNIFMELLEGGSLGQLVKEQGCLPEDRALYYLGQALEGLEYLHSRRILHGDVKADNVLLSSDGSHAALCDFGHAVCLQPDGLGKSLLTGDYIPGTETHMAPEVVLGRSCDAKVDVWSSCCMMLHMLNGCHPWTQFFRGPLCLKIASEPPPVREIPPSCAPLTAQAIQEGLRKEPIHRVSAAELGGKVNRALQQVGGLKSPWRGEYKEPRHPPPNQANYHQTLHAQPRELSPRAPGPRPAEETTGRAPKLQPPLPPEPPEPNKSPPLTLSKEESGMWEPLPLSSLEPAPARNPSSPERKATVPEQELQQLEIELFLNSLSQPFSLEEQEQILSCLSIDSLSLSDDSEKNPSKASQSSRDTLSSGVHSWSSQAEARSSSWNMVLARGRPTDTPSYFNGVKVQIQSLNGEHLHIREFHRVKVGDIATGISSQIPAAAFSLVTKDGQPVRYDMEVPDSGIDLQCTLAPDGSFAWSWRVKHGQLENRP
A general note: Bead proximity is the source of the signal in Alpha formats.

In assay [2] the test system is p-IKKa levels in L363 (NIK translocated multiple myeloma) cells. As to the kind of experiment: Effect of compounds on p-IKKa levels in L363 (NIK translocated multiple myeloma) cells (AlphaLISA SureFire Ultra p-IKKa Ser176/180). The assay is classed as cell-based, human. Conditions: Homo sapiens, L-363, p-IKKa levels in L363 cells; average if tested more than once; read-out: Assay 2 IC50. Summed up:
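L363 multiple myeloma cells, BAFF-stimulated overnight (250 ng/ml), then 6 h at 37 °C with compound (11-point 1:3 series, 0.3% DMSO) plus BAFF and 10 μM MG132. p-IKKa Ser176/180 read by AlphaLISA SureFire Ultra; IC50 from sigmoidal fit normalised to stimulated and unstimulated controls.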

What is called IC50 is the concentration that gives 50% inhibition. Take `CN1CC[C@@](O)(c2cccc(-c3nc(-c4ccnc(Nc5cn(C)nc5OC(F)F)n4)cs3)c2)C1=O` [Example 99, (R)-3-(3-(4-(2-((3-(difluoromethoxy)-1-methyl-1H-pyrazol-4-yl)amino)pyrimidin-4-yl)thiazol-2-yl)phenyl)-3-hydroxy-1-methylpyrrolidin-2-one]: the IC50 in assay [1] and in assay [2] was below 100 nM each time.

For `CC(C)Oc1nn(C)cc1Nc1nccc(-c2csc(-c3cccc([C@]4(O)CCN(C)C4=O)c3)n2)n1` [Example 100, (R)-3-hydroxy-3-(3-(4-(2-((3-isopropoxy-1-methyl-1H-pyrazol-4-yl)amino)pyrimidin-4-yl)thiazol-2-yl)phenyl)-1-methylpyrrolidin-2-one], the IC50 in assay [1] and in assay [2] was below 100 nM throughout.

In the case of `COc1nn(CC(F)(F)F)cc1Nc1nccc(-c2csc(-c3cccc([C@]4(O)CCN(C)C4=O)c3)n2)n1` [Example 101, (R)-3-hydroxy-3-(3-(4-(2-((3-methoxy-1-(2,2,2-trifluoroethyl)-1H-pyrazol-4-yl)amino)pyrimidin-4-yl)thiazol-2-yl)phenyl)-1-methylpyrrolidin-2-one], the IC50 in assay [1] and in assay [2] was below 100 nM throughout.

As to `CN1CC[C@@](O)(c2cccc(-c3ccn(-c4ccnc(Nc5cn(CC(F)F)nc5OC5CC5)n4)n3)c2)C1=O` [Example 102, (R)-3-(3-(1-(2-((3-cyclopropoxy-1-(2,2-difluoroethyl)-1H-pyrazol-4-yl)amino)pyrimidin-4-yl)-1H-pyrazol-3-yl)phenyl)-3-hydroxy-1-methylpyrrolidin-2-one], the IC50 in assay [1] and in assay [2] was below 100 nM each time.

In the case of `CCn1cc(Nc2nccc(-c3csc(-c4cccc([C@]5(O)CCN(C)C5=O)c4)n3)n2)c(OC)n1` [Example 103, (R)-3-(3-(4-(2-((1-ethyl-3-methoxy-1H-pyrazol-4-yl)amino)pyrimidin-4-yl)thiazol-2-yl)phenyl)-3-hydroxy-1-methylpyrrolidin-2-one], the IC50 was below 100 nM in assay [1] and 100 to 500 nM in assay [2].

For `COc1nn(C)cc1Nc1nccc(-c2csc(-c3cccc([C@]4(O)CCN(C)C4=O)c3)n2)n1` [Example 104, (R)-3-hydroxy-3-(3-(4-(2-((3-methoxy-1-methyl-1H-pyrazol-4-yl)amino)pyrimidin-4-yl)thiazol-2-yl)phenyl)-1-methylpyrrolidin-2-one], the IC50 in assay [1] and in assay [2] was below 100 nM in each case.

As for `Cc1cc(Nc2nccc(-c3csc(-c4cccc([C@]5(O)CCN(C)C5=O)c4)n3)n2)ncn1` [Example 106, (R)-3-hydroxy-1-methyl-3-(3-(4-(2-((6-methylpyrimidin-4-yl)amino)pyrimidin-4-yl)thiazol-2-yl)phenyl)pyrrolidin-2-one], the 50% inhibitory concentration (IC50) in assay [1] was below 100 nM; in assay [2] it was above 501 nM.

Turning to `COCCn1nc(C)cc1Nc1nccc(-c2csc(-c3cccc([C@]4(O)CCN(C)C4=O)c3)n2)n1` [Example 107, (R)-3-hydroxy-3-(3-(4-(2-((1-(2-methoxyethyl)-3-methyl-1H-pyrazol-5-yl)amino)pyrimidin-4-yl)thiazol-2-yl)phenyl)-1-methylpyrrolidin-2-one], the IC50 in assay [1] and in assay [2] was above 501 nM throughout.

For the molecule `CN1CC[C@@](O)(c2cccc(-c3nc(-c4ccnc(N[C@H]5CCC[C@@H]5O)n4)cs3)c2)C1=O` [Example 108, (R)-3-hydroxy-3-(3-(4-(2-(((1S,2S)-2-hydroxycyclopentyl)amino)pyrimidin-4-yl)thiazol-2-yl)phenyl)-1-methylpyrrolidin-2-one], the IC50 is 100 to 500 nM in assay [1] and above 501 nM in assay [2].

In the case of `CN1CC[C@@](O)(c2cccc(-c3nc(-c4ccnc(N[C@H]5C[C@H](O)C5)n4)cs3)c2)C1=O` [Example 109, (R)-3-hydroxy-3-(3-(4-(2-(((1R,3R)-3-hydroxycyclobutyl)amino)pyrimidin-4-yl)thiazol-2-yl)phenyl)-1-methylpyrrolidin-2-one], the values for the IC50 in assay [1] and in assay [2] were 100 to 500 nM and above 501 nM, respectively.
